Experimental data as given in US7476401B2, “Protein and peptide delivery to mammalian cells in vitro” (Mirus Bio LLC, priority 2003, dated 2009).

Tested on: HeLa cells
Test: Protein delivery to HeLa cells, visualized by fluorescence confocal microscopy
Type: cell-based
Details: technique #2, FIG. 2B
Protocol: HeLa cells were maintained in DMEM containing 10% fetal bovine serum. For polypeptide delivery, cells were plated in 6-well plates containing glass cover slips at a density of 50,000-100,000 cells per well and grown for 24-48 hours before incubation with polypeptide formulations.
Two different techniques were used for contacting polypeptide formulations with cells. In both techniques, cells were grown to 30-70% confluency and washed once with 2 ml 37° C. PBS prior to addition of polypeptide formulations.
Technique #1: Peptide formulations were diluted by addition of 150 μl 37° C. PBS (180-200 μl total volume). Formulations were than added to cells on cover slips. Following a 5 min incubation at room temperature (RT) 0.8 ml 37° C. DMEM was added to each well and cells were again incubated for 5 min at RT. Media was then aspirated off cells and 2.0 ml DMEM containing 10% bovine serum was added. […]
Visualization of polypeptide delivery to cells: In order to visually analyze polypeptide delivery, cells were washed 3× with PBS, fixed for 30 min at 4° C. in PBS containing 4% formaldehyde and washed 3× with PBS. Cover slips were then mounted onto slides for fluorescence microscopy using a Zeiss LSM510 laser confocal microscope. Rhodamine was detected by exciting with a HeNe laser at 543 nm and detecting with a 560 nm long pass filter. […]

Question: How did the “uptake of modified protein by cells” value turn out when “modification #26: Rhodamine-labeled Bovine Serum Albumin modified with chlorodimethyloctadecylsilane, dried, hydrated with PBS” was run?
Answer: uptake of BSA
